Test results taken from ChEMBL document CHEMBL1201862, “PubChem BioAssay data set” (2004).
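Where inhibition never reached the appropriate level, the endpoint shown equals the highest concentration tested. Otherwise, values were interpolated linearly from a five-concentration, 48-hour dose response in 96-well plates. Here, GI50 denotes the concentration required for 50% inhibition of growth.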 Activity calls are given as the source filed them. No stated cut-off is given here; in the data, active = GI50 up to about 1.1 µM and inactive = higher.

Assays:
Assay in all cases: inhibition of tumour cell growth, NCI panel, 48 h
[1] = system: K562
[2] = system: SK-MEL-5
[3] = system: UACC-62
[4] = system: SNB-19
[5] = system: KM12
[6] = system: MDA-N
[7] = system: SN12C
[8] = system: RPMI-8226
[9] = system: MDA-MB-435
[10] = system: Hs-578T
[11] = system: A549
[12] = system: UACC-257
[13] = system: PC-3
[14] = system: MOLT-4
[15] = system: 786-0
[16] = system: SF-268
[17] = system: CAKI-1
[18] = system: RXF 393
[19] = system: NCI/ADR-RES

Row | SMILES | GI50 [1] | GI50 [2] | GI50 [3] | GI50 [4] | GI50 [5] | GI50 [6] | GI50 [7] | GI50 [8] | GI50 [9] | GI50 [10] | GI50 [11] | GI50 [12] | GI50 [13] | GI50 [14] | GI50 [15] | GI50 [16] | GI50 [17] | GI50 [18] | GI50 [19]
1 | COc1cc2c(cc1-c1coc3cc(OCC=C(C)C)ccc3c1=O)OCO2 | 6.85 µM (inactive) | 16.8 µM (inactive) | 25.6 µM (inactive) | 27.4 µM (inactive) | 13.8 µM (inactive) | 6.7 µM (inactive) | 27.8 µM (inactive) | 15.3 µM (inactive) | 9.25 µM (inactive) | 28.8 µM (inactive) | 28.6 µM (inactive) | 33.3 µM (inactive) | 42.8 µM (inactive) | 10.9 µM (inactive) | 19.9 µM (inactive) | 43.4 µM (inactive) | 19.8 µM (inactive) | – | –
2 | CC1=CCC[C@H]2[C@](C)(CC3=CC(=O)C(SCC(C)C)=CC3=O)[C@@H](C)CC[C@]12C | 5.78 µM (inactive) | 12.8 µM (inactive) | 14.3 µM (inactive) | 18.3 µM (inactive) | 11.2 µM (inactive) | – | 24.9 µM (inactive) | 3.8 µM (inactive) | 15.7 µM (inactive) | – | 12.5 µM (inactive) | 17.3 µM (inactive) | 15 µM (inactive) | 1.53 µM (inactive) | 14 µM (inactive) | – | 11.3 µM (inactive) | 9.68 µM (inactive) | 16 µM (inactive)
3 | COc1ccc(N[C@H](C[S+]([O-])c2ccc(C)cc2)c2ccc(F)cc2)cc1 (some centres undefined) | > 100 µM (inactive) | 12.9 µM (inactive) | 34.4 µM (inactive) | 35.8 µM (inactive) | > 100 µM (inactive) | 39.3 µM (inactive) | 54.3 µM (inactive) | > 100 µM (inactive) | > 100 µM (inactive) | – | 43 µM (inactive) | > 100 µM (inactive) | 82.4 µM (inactive) | > 100 µM (inactive) | 65.3 µM (inactive) | 24.7 µM (inactive) | > 100 µM (inactive) | 48.4 µM (inactive) | 26.9 µM (inactive)
4 | O=C(Nc1nc2ccc([N+](=O)[O-])cc2s1)c1cc([N+](=O)[O-])ccc1Cl | – | 1.41 µM (inactive) | – | – | 3.4 µM (inactive) | 1.48 µM (inactive) | 1.52 µM (inactive) | 0.989 µM (active) | 4.04 µM (inactive) | – | – | 3.23 µM (inactive) | – | 3.21 µM (inactive) | 2.75 µM (inactive) | 3.41 µM (inactive) | 4.51 µM (inactive) | 3.69 µM (inactive) | 1.91 µM (inactive)
5 | N#C[BH2-][n+]1ccc(C(=O)NNC(c2ccccc2)C(F)(F)F)cc1 (centres undefined) | > 100 µM (inactive) | > 100 µM (inactive) | – | > 100 µM (inactive) | > 100 µM (inactive) | – | > 100 µM (inactive) | > 100 µM (inactive) | > 100 µM (inactive) | – | > 100 µM (inactive) | > 100 µM (inactive) | > 100 µM (inactive) | > 100 µM (inactive) | > 100 µM (inactive) | > 100 µM (inactive) | > 100 µM (inactive) | – | > 100 µM (inactive)
6 | Cc1cc(N(CCC#N)CCC#N)ccc1/N=N/c1ccc([N+](=O)[O-])cc1 | > 100 µM (inactive) | > 10 µM (inactive) | > 10 µM (inactive) | 22 µM (inactive) | > 100 µM (inactive) | – | 65.8 µM (inactive) | 44.9 µM (inactive) | – | – | > 100 µM (inactive) | > 100 µM (inactive) | – | > 100 µM (inactive) | 43 µM (inactive) | > 100 µM (inactive) | > 100 µM (inactive) | 32.5 µM (inactive) | –
7 | CC(=O)NC1(c2cc3ccccc3s2)CCCCCC1 | 23.8 µM (inactive) | 27.1 µM (inactive) | 31.3 µM (inactive) | 74.5 µM (inactive) | 41.8 µM (inactive) | 48.4 µM (inactive) | 42.3 µM (inactive) | – | 35.5 µM (inactive) | – | 38.9 µM (inactive) | 40 µM (inactive) | 27.4 µM (inactive) | 18.5 µM (inactive) | 34.7 µM (inactive) | 21.3 µM (inactive) | 52.6 µM (inactive) | 29.6 µM (inactive) | 38.3 µM (inactive)
8 | Nc1nc(Cl)c(N)c(NCC2(CO)CC(CCCc3ccccc3)C2)n1 (centres undefined) | 10.8 µM (inactive) | – | 24.1 µM (inactive) | > 55.5 µM (inactive) | 21.5 µM (inactive) | 19.3 µM (inactive) | 62.7 µM (inactive) | – | 11.6 µM (inactive) | 36.7 µM (inactive) | 15.5 µM (inactive) | 7.67 µM (inactive) | 17.9 µM (inactive) | 5.07 µM (inactive) | 22.7 µM (inactive) | 23 µM (inactive) | 34.8 µM (inactive) | – | –
9 | c1ccc(-c2nc3ccccc3n3nnnc23)cc1 | > 100 µM (inactive) | > 100 µM (inactive) | > 100 µM (inactive) | 75.7 µM (inactive) | > 100 µM (inactive) | > 100 µM (inactive) | > 100 µM (inactive) | > 100 µM (inactive) | > 100 µM (inactive) | – | > 100 µM (inactive) | > 100 µM (inactive) | > 100 µM (inactive) | > 100 µM (inactive) | 57.1 µM (inactive) | 75.7 µM (inactive) | – | 52.1 µM (inactive) | > 100 µM (inactive)
10 | Sc1nnc(-c2ccccc2Nc2ccccc2-c2nnc(S)n2-c2ccccc2)n1-c1ccccc1 | 52.7 µM (inactive) | 23.7 µM (inactive) | 58.3 µM (inactive) | 46.9 µM (inactive) | 51.6 µM (inactive) | 32.1 µM (inactive) | 26.5 µM (inactive) | 20 µM (inactive) | 22.9 µM (inactive) | – | – | 44.3 µM (inactive) | 60.3 µM (inactive) | 27.2 µM (inactive) | 45 µM (inactive) | 69.7 µM (inactive) | 31.3 µM (inactive) | 35.6 µM (inactive) | 84.1 µM (inactive)
11 | O=C(NN1C(=O)CSC1c1ccco1)c1ccncc1 (centres undefined) | > 100 µM (inactive) | > 100 µM (inactive) | > 100 µM (inactive) | > 100 µM (inactive) | > 100 µM (inactive) | > 100 µM (inactive) | > 100 µM (inactive) | > 100 µM (inactive) | > 100 µM (inactive) | – | > 100 µM (inactive) | > 100 µM (inactive) | > 100 µM (inactive) | > 100 µM (inactive) | > 100 µM (inactive) | > 100 µM (inactive) | > 100 µM (inactive) | > 100 µM (inactive) | > 100 µM (inactive)
12 | O=C(Cn1cc(-c2ccccc2)nn1)NC1CCCC1 | > 100 µM (inactive) | > 100 µM (inactive) | – | > 100 µM (inactive) | > 100 µM (inactive) | – | > 100 µM (inactive) | > 100 µM (inactive) | > 100 µM (inactive) | – | > 100 µM (inactive) | > 100 µM (inactive) | > 100 µM (inactive) | > 100 µM (inactive) | > 100 µM (inactive) | > 100 µM (inactive) | > 100 µM (inactive) | – | > 100 µM (inactive)
13 | Nc1nc(N)c2ncn(CCOC(c3ccccc3)P(=O)(O)O)c2n1 (centres undefined) | – | > 100 µM (inactive) | > 100 µM (inactive) | > 100 µM (inactive) | > 100 µM (inactive) | – | > 100 µM (inactive) | – | – | – | > 100 µM (inactive) | > 100 µM (inactive) | – | > 100 µM (inactive) | > 100 µM (inactive) | > 100 µM (inactive) | > 100 µM (inactive) | > 100 µM (inactive) | –
